According to PubChem BioAssay (NCI):
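1) Cells in 96-well plates. 2) Compound, 48 h, 5 concentrations. 3) Linear interpolation between surrounding doses. 4) Unreached endpoint = highest concentration. Definition used: TGI = concentration required for complete inhibition of growth.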

The compounds below were run on MCF7 breast (assay: DTP human tumour cell line panel, 48 h).
`CCOC(=O)c1c2ccccc2n2c(N)c(C(N)=O)nnc12` was tested, and the TGI was over 100 µM. In the case of `CC[C@@]1(O)C(=O)OCc2c1cc1n(c2=O)Cc2c-1nc1ccccc1c2/C=N\NC(=O)CN`, the TGI is reported as over 64 µM. In the case of `CNC(=O)C(C)C1CCC2(C)C=CC(=O)C(C)=C2C1O` (centres undefined), the TGI is reported as over 100 µM. `CCOC(=O)C(NC(C)=O)(Nc1ccc(F)cc1)C(F)(F)F` (centres undefined) showed a TGI of over 100 µM. `CCOc1cc2c(cc1O)/C(=N\OC)C[C@@H]1[C@@H]2CC[C@]2(C)[C@@H](O)CC[C@@H]12` showed a TGI of over 37.6 µM. `CC1(C)N=C(/C(Cl)=[N+](/[O-])C(=O)c2ccc(F)cc2)C(C)(C)N1O` gave a TGI of 44 µM. `COC(=O)[C@H]1CO[C@@H](C(C)(C)C)N1C(=O)N1C=CC(=O)C[C@@H]1C` gave a TGI of over 100 µM. In the case of `O=C(Nc1ccc(C2=NCCN2)cc1)c1cncc(C(=O)Nc2ccc(C3=NCCN3)cc2)c1`, the TGI is reported as over 100 µM. Work on `Clc1ccc(/C=C/c2nc3ccccc3s2)cc1Cl` yielded a TGI of over 100 µM. In the case of `Cc1ccc(SCC(CSCCO)OCn2cnc3c2NC(N)=NC32OCCO2)cc1` (centres undefined), the TGI is reported as over 100 µM. For `COC(=O)C1CCC(=O)N1C(c1ccccc1)c1ccc(OC)c(OC)c1` (centres undefined), the TGI was over 100 µM. In the case of `NC(=O)C(c1ccccc1)N1OC2C(=O)N(c3ccccc3)C(=O)C2C1c1c2ccccc2c(Cl)c2ccccc12` (centres undefined), the TGI is reported as over 100 µM. For `CC[C@@]1(C[C@H]2C[C@@]3(C(=O)OC)c4[nH]c5ccccc5c4CCN3C2=O)COC2(CCCCC2)O1`, the TGI was 91.4 µM. Work on `COc1ccc2c(=O)c(O)c(-c3ccc(OC)c(OC)c3)oc2c1` yielded a TGI of over 100 µM. `CC(C)CCCCCCCCCCCCC(=O)NCC(=O)NC1C(C)OC(Nc2ncnc3c2ncn3C)C(O)C1O` (centres undefined) was tested, and the TGI was over 100 µM. With `COc1ccc(C2c3cc4c(cc3OC(NNS(=O)(=O)c3ccc(C)cc3)C2C)OCO4)cc1` (centres undefined) the TGI was over 100 µM. `c1ccc(N=C2SC3=Nc4cccc5cccc(c45)N3C2=Nc2ccccc2)cc1` gave a TGI of over 100 µM. In the case of `O=C(O)CN(CC(=O)O)C1CCCCC1N(CC(=O)O)CC(=O)NCCN=C=S` (centres undefined), the TGI is reported as over 100 µM. `Oc1cc2c3c(c1)c1cc4c(cc1c[n+]3CC2)OCO4` was tested, and the TGI was over 100 µM. Compound `Cc1cn(C2CC(N(O)C(N)=O)C(CO)O2)c(=O)[nH]c1=O` (centres undefined) has a TGI of over 100 µM. In the case of `O=C1CCC23CC(C=CC=C12)n1c(=O)n(-c2ccccc2)c(=O)n13` (centres undefined), the TGI is reported as 32.3 µM. Compound `CC1=C(C)[C@@]2(C)O[C@@]2(C)O[C@@]2(C)O[C@@]12C` has a TGI of over 100 µM.

What follows are compounds tested on SK-OV-3 ovarian (assay: DTP human tumour cell line panel, 48 h).
In the case of `O=c1[nH][nH]c(=O)n1Cc1ccccc1Cn1c(=O)[nH][nH]c1=O`, the TGI is reported as over 100 µM. In the case of `CC1C=C(CCCCCCCCCCCC[C@@H](O)[C@@H]2CC[C@@H]([C@@H]3CC[C@@H](C(O)CCCCCCCCCCCCC4=C[C@H](C)OC4=O)O3)O2)C(=O)O1` (some centres undefined), the TGI is reported as over 100 µM. With `COc1cc([C@@H]2OCC3C(c4ccc5c(c4)OCO5)OCC32)cc(OC)c1OC` (some centres undefined) the TGI was over 100 µM. `CCOC(=O)c1c2ccccc2n2c(N)c(C(N)=O)nnc12` gave a TGI of 37.6 µM. In the case of `N#CN=C(N(Cc1ccccc1)Cc1ccccc1)N(Cc1ccccc1)Cc1ccccc1`, the TGI is reported as over 100 µM. For `CNC(=O)C(C)C1CCC2(C)C=CC(=O)C(C)=C2C1O` (centres undefined), the TGI was over 100 µM. `CCOC(=O)C(NC(C)=O)(Nc1ccc(F)cc1)C(F)(F)F` (centres undefined) gave a TGI of over 100 µM. `CCOc1cc2c(cc1O)/C(=N\OC)C[C@@H]1[C@@H]2CC[C@]2(C)[C@@H](O)CC[C@@H]12` was tested, and the TGI was over 100 µM. Work on `CC1(C)N=C(/C(Cl)=[N+](/[O-])C(=O)c2ccc(F)cc2)C(C)(C)N1O` yielded a TGI of 47 µM. For `COC(=O)[C@H]1CO[C@@H](C(C)(C)C)N1C(=O)N1C=CC(=O)C[C@@H]1C`, the TGI was over 100 µM. With `C[n+]1c2ccccc2c(/C=N\NS(=O)(=O)c2ccc(O)c(C(=O)O)c2)c2ccccc21` the TGI was over 100 µM. Work on `O=C(Nc1ccc(C2=NCCN2)cc1)c1cncc(C(=O)Nc2ccc(C3=NCCN3)cc2)c1` yielded a TGI of over 100 µM. `Clc1ccc(/C=C/c2nc3ccccc3s2)cc1Cl` showed a TGI of over 100 µM. In the case of `Cc1ccc(SCC(CSCCO)OCn2cnc3c2NC(N)=NC32OCCO2)cc1` (centres undefined), the TGI is reported as over 100 µM. Compound `CC(=O)Nc1ccc(-c2nnc(SCC(=O)Nc3ccc([N+](=O)[O-])cc3)o2)cc1` has a TGI of 35.9 µM. `N.N.N.N.O=[N+]([O-])[O-].[Co+3].[N-]=[N+]=[N-].[N-]=[N+]=[N-]` was tested, and the TGI was over 100 µM. `COC(=O)C1CCC(=O)N1C(c1ccccc1)c1ccc(OC)c(OC)c1` (centres undefined) showed a TGI of over 100 µM. `NC(=O)C(c1ccccc1)N1OC2C(=O)N(c3ccccc3)C(=O)C2C1c1c2ccccc2c(Cl)c2ccccc12` (centres undefined) was tested, and the TGI was over 100 µM. `CC[C@@]1(C[C@H]2C[C@@]3(C(=O)OC)c4[nH]c5ccccc5c4CCN3C2=O)COC2(CCCCC2)O1` gave a TGI of over 100 µM. For `COc1ccc2c(=O)c(O)c(-c3ccc(OC)c(OC)c3)oc2c1`, the TGI was over 100 µM. Compound `CC(C)CCCCCCCCCCCCC(=O)NCC(=O)NC1C(C)OC(Nc2ncnc3c2ncn3C)C(O)C1O` (centres undefined) has a TGI of over 94.6 µM. Compound `COc1ccc(C2c3cc4c(cc3OC(NNS(=O)(=O)c3ccc(C)cc3)C2C)OCO4)cc1` (centres undefined) has a TGI of over 100 µM. Compound `c1ccc(N=C2SC3=Nc4cccc5cccc(c45)N3C2=Nc2ccccc2)cc1` has a TGI of over 100 µM. `CCC12C=CCN3CCC4(C(=C(C(=O)OC)[C@@H]1O)Nc1ccccc14)C32` (some centres undefined) gave a TGI of 6.2 µM. `O=C(O)CN(CC(=O)O)C1CCCCC1N(CC(=O)O)CC(=O)NCCN=C=S` (centres undefined) gave a TGI of over 100 µM. For `Oc1cc2c3c(c1)c1cc4c(cc1c[n+]3CC2)OCO4`, the TGI was over 100 µM. `Cc1cn(C2CC(N(O)C(N)=O)C(CO)O2)c(=O)[nH]c1=O` (centres undefined) gave a TGI of over 100 µM. `O=C1CCC23CC(C=CC=C12)n1c(=O)n(-c2ccccc2)c(=O)n13` (centres undefined) gave a TGI of over 100 µM. `[N-]=[N+]=Nc1cc(=O)oc2ccccc12` showed a TGI of over 100 µM. `CC(=O)NC1=C(NCCC(C)C)C(=O)c2ccccc2C1=O` showed a TGI of over 50 µM. Compound `Nc1cccc2cc(Cl)cnc12` has a TGI of over 100 µM. `CC1=C(C)[C@@]2(C)O[C@@]2(C)O[C@@]2(C)O[C@@]12C` showed a TGI of over 100 µM.

Each compound was assayed on NCI-H460 lung (assay: DTP human tumour cell line panel, 48 h).
`O=c1[nH][nH]c(=O)n1Cc1ccccc1Cn1c(=O)[nH][nH]c1=O` gave a TGI of over 100 µM. `CC1C=C(CCCCCCCCCCCC[C@@H](O)[C@@H]2CC[C@@H]([C@@H]3CC[C@@H](C(O)CCCCCCCCCCCCC4=C[C@H](C)OC4=O)O3)O2)C(=O)O1` (some centres undefined) was tested, and the TGI was over 100 µM. Work on `COc1cc([C@@H]2OCC3C(c4ccc5c(c4)OCO5)OCC32)cc(OC)c1OC` (some centres undefined) yielded a TGI of over 100 µM. Compound `CCOC(=O)c1c2ccccc2n2c(N)c(C(N)=O)nnc12` has a TGI of over 100 µM. `CC[C@@]1(O)C(=O)OCc2c1cc1n(c2=O)Cc2c-1nc1ccccc1c2/C=N\NC(=O)CN` showed a TGI of 4.66 µM. In the case of `N#CN=C(N(Cc1ccccc1)Cc1ccccc1)N(Cc1ccccc1)Cc1ccccc1`, the TGI is reported as over 100 µM. Work on `CNC(=O)C(C)C1CCC2(C)C=CC(=O)C(C)=C2C1O` (centres undefined) yielded a TGI of over 100 µM. Work on `CCOC(=O)C(NC(C)=O)(Nc1ccc(F)cc1)C(F)(F)F` (centres undefined) yielded a TGI of over 100 µM. `CCOc1cc2c(cc1O)/C(=N\OC)C[C@@H]1[C@@H]2CC[C@]2(C)[C@@H](O)CC[C@@H]12` gave a TGI of 37.3 µM. For `CC1(C)N=C(/C(Cl)=[N+](/[O-])C(=O)c2ccc(F)cc2)C(C)(C)N1O`, the TGI was over 100 µM. In the case of `C[n+]1c2ccccc2c(/C=N\NS(=O)(=O)c2ccc(O)c(C(=O)O)c2)c2ccccc21`, the TGI is reported as over 100 µM. With `O=C(Nc1ccc(C2=NCCN2)cc1)c1cncc(C(=O)Nc2ccc(C3=NCCN3)cc2)c1` the TGI was over 100 µM. Compound `Clc1ccc(/C=C/c2nc3ccccc3s2)cc1Cl` has a TGI of over 100 µM. For `Cc1ccc(SCC(CSCCO)OCn2cnc3c2NC(N)=NC32OCCO2)cc1` (centres undefined), the TGI was over 100 µM. `CC(=O)Nc1ccc(-c2nnc(SCC(=O)Nc3ccc([N+](=O)[O-])cc3)o2)cc1` showed a TGI of 29.1 µM.
